Reference: patent US9296723B2, “NAMPT inhibitors” (AbbVie Inc., priority 2012, dated 2016)

What was measured:
NAMPT [1] = target: T1, NAMPT (Homo sapiens, UniProt P43490); experiment: TR-FRET Binding Assay of NAMPT with PRPP; conditions: 2 nM NAMPT, 2 nM probe, 200 µM PRPP and 2.5 mM ATP, equilibrated 16 hours
In short: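 TR-FRET probe displacement with 2 nM NAMPT, 2 nM probe and 1 nM Tb-anti-His antibody in the presence of 200 µM PRPP and 2.5 mM ATP, 2% DMSO (all final). Equilibrated 16 hours before reading to permit possible enzymatic modification of compounds.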

NAMPT [2] = target: T1, NAMPT; experiment: Time-Resolved Fluorescence Resonance Energy Transfer (TR-FRET) Binding Assay of NAMPT; conditions: 6.8 nM NAMPT, 200 nM probe, equilibrated 3 hours, no substrates
In short: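 Compound was mixed with enzyme, probe and antibody and equilibrated 3 h at room temperature. TR-FRET read at Ex 337 nm, Em 520/495 nm. Ratios were normalized to controls and fitted to a four-parameter logistic equation for IC50.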

PC3 cells = experiment: NAMPT Cell Proliferation Assay (Cell Titer Glo); format: cell-based; conditions: Homo sapiens, PC-3, 120 h, incubated 5 days, cell viability
In short: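 PC3 cells (500/well, RPMI with 10% heat-inactivated FBS) were exposed to 10-fold compound dilutions from […] for 5 days at 37 °C, 5% CO2. Viability was read with Cell Titer Glo; IC50 from sigmoidal fit of percent inhibition.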

T1 sequence (P43490 whole entry): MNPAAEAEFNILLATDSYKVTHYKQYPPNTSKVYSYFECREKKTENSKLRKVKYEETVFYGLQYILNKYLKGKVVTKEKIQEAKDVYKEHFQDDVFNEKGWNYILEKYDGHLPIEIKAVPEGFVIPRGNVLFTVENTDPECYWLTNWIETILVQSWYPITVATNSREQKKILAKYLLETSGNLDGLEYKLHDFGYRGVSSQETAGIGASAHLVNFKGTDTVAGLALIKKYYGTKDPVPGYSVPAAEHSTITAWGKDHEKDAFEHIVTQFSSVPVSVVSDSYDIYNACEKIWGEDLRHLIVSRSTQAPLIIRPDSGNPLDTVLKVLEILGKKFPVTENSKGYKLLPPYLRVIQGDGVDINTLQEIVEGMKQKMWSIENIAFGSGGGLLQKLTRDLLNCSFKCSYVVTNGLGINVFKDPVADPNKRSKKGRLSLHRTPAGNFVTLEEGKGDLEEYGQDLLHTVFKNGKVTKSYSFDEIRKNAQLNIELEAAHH

Compound	IC50 (NAMPT [1])	IC50 (NAMPT [2])	IC50 (PC3 cells)
CC(C)(C)CN1CCC(c2ccc(NC(=O)N3CC(c4cccnc4)C3)cc2)CC1 [Example 238, N-{4-[1-(2,2-dimethylpropyl)piperidin-4-yl]phenyl}-3-(pyridin-3-yl)azetidine-1-carboxamide]	1.41 nM	4010 nM	746 nM
CC(C)(O)C(=O)N1CCC(c2ccc(NC(=O)N3CC(c4cccnc4Cl)C3)cc2)CC1 [Example 161, 3-(2-chloropyridin-3-yl)-N-{4-[1-(2-hydroxy-2-methylpropanoyl)piperidin-4-yl]phenyl}azetidine-1-carboxamide]	5.79 nM	8.62 nM	905 nM
O=C(Nc1ccc(OC2CN(C(=O)c3cncs3)C2)cc1)N1CC(c2cccnc2)C1 [Example 144, 3-(pyridin-3-yl)-N-(4-{[1-(1,3-thiazol-5-ylcarbonyl)azetidin-3-yl]oxy}phenyl)azetidine-1-carboxamide]	0.313 nM	25.6 nM	9.04 nM
Cc1ccc(C(=O)N2CCC(c3ccc(NC(=O)N4CC(c5cccnc5)C4)cc3)C2)s1 (stereo not drawn) [Example 283, N-(4-{1-[(5-methylthiophen-2-yl)carbonyl]pyrrolidin-3-yl}phenyl)-3-(pyridin-3-yl)azetidine-1-carboxamide]	0.266 nM	33.7 nM	61.7 nM
O=C(Nc1ccc(C2CN(C(=O)c3ccoc3)C2)cc1)N1CC(c2cccnc2)C1 [Example 216, N-{4-[1-(furan-3-ylcarbonyl)azetidin-3-yl]phenyl}-3-(pyridin-3-yl)azetidine-1-carboxamide]	0.256 nM	18.4 nM	20.5 nM
O=C(Nc1ccc(OC2CN(C(=O)C3CCCC3)C2)cc1)N1CC(c2cccnc2)C1 [Example 142, N-(4-{[1-(cyclopentylcarbonyl)azetidin-3-yl]oxy}phenyl)-3-(pyridin-3-yl)azetidine-1-carboxamide]	0.339 nM	24.6 nM	7.91 nM
CC(C)C(=O)N1CC(Oc2ccc(NC(=O)N3CC(c4cccnc4)C3)cc2)C1 [Example 127, N-(4-{[1-(2-methylpropanoyl)azetidin-3-yl]oxy}phenyl)-3-(pyridin-3-yl)azetidine-1-carboxamide]	0.603 nM	93.4 nM	71 nM
CCC(CC)CN1CC(c2ccc(NC(=O)N3CC(c4cccnc4)C3)cc2)C1 [Example 253, N-{4-[1-(2-ethylbutyl)azetidin-3-yl]phenyl}-3-(pyridin-3-yl)azetidine-1-carboxamide]	0.207 nM	538 nM	622 nM
CC1CC1C(=O)N1CC(Oc2ccc(NC(=O)N3CC(c4cccnc4)C3)cc2)C1 (stereo not drawn) [Example 125, N-[4-({1-[(2-methylcyclopropyl)carbonyl]azetidin-3-yl}oxy)phenyl]-3-(pyridin-3-yl)azetidine-1-carboxamide]	0.271 nM	29.3 nM	8.12 nM
COCC(=O)N1CC(Oc2ccc(NC(=O)N3CC(c4cccnc4)C3)cc2)C1 [Example 120, N-(4-{[1-(methoxyacetyl)azetidin-3-yl]oxy}phenyl)-3-(pyridin-3-yl)azetidine-1-carboxamide]	0.689 nM	145 nM	78 nM
Cc1noc(C)c1C(=O)N1CC(Oc2ccc(NC(=O)N3CC(c4cccnc4)C3)cc2)C1 [Example 145, N-[4-({1-[(3,5-dimethyl-1,2-oxazol-4-yl)carbonyl]azetidin-3-yl}oxy)phenyl]-3-(pyridin-3-yl)azetidine-1-carboxamide]	0.6 nM	90.5 nM	73.9 nM
O=C(Nc1ccc(O[C@@H]2CCN(C(=O)c3cccs3)C2)cc1)N1CC(c2cccnc2)C1 [Example 324, 3-(pyridin-3-yl)-N-(4-{[(3R)-1-(thiophen-2-ylcarbonyl)pyrrolidin-3-yl]oxy}phenyl)azetidine-1-carboxamide]	0.36 nM	20.7 nM	6.24 nM
CCC(C)(C)C(=O)N1CCC(c2ccc(NC(=O)N3CC(c4cccnc4)C3)cc2)CC1 [Example 169, N-{4-[1-(2,2-dimethylbutanoyl)piperidin-4-yl]phenyl}-3-(pyridin-3-yl)azetidine-1-carboxamide]	0.304 nM	5.36 nM	7.98 nM
CC(C)(C)CC(=O)N1CCC(Oc2ccc(NC(=O)N3CC(c4cccnc4)C3)cc2)CC1 [Example 45, N-(4-{[1-(3,3-dimethylbutanoyl)piperidin-4-yl]oxy}phenyl)-3-(pyridin-3-yl)azetidine-1-carboxamide]	0.223 nM	34.3 nM	63.4 nM
O=C(Nc1ccc(OC2CN(C(=O)c3cccs3)C2)cc1)N1CC(c2cccnc2)C1 [Example 141, 3-(pyridin-3-yl)-N-(4-{[1-(thiophen-2-ylcarbonyl)azetidin-3-yl]oxy}phenyl)azetidine-1-carboxamide]	0.249 nM	17.6 nM	8.33 nM
O=C(Nc1ccc(OC2CCN(C(=O)c3ccsc3)CC2)cc1)N1CC(c2cccnc2)C1 [Example 33, 3-(pyridin-3-yl)-N-(4-{[1-(thiophen-3-ylcarbonyl)piperidin-4-yl]oxy}phenyl)azetidine-1-carboxamide]	0.43 nM	56.1 nM	68.7 nM
O=C(CCC(F)(F)F)N1CCC(c2ccc(NC(=O)N3CC(c4cccnc4)C3)cc2)C1 (stereo not drawn) [Example 271, 3-(pyridin-3-yl)-N-{4-[1-(4,4,4-trifluorobutanoyl)pyrrolidin-3-yl]phenyl}azetidine-1-carboxamide]	0.279 nM	46.9 nM	60.4 nM
CC(C)C(=O)N1CC=C(c2ccc(NC(=O)N3CC(c4cccnc4)C3)cc2)CC1 [Example 27, N-{4-[1-(2-methylpropanoyl)-1,2,3,6-tetrahydropyridin-4-yl]phenyl}-3-(pyridin-3-yl)azetidine-1-carboxamide]	0.243 nM	13 nM	9.2 nM
O=C(Nc1ccc(C2CCN(C(=O)C3CCCC3)CC2)cc1)N1CC(c2cccnc2)C1 [Example 180, N-{4-[1-(cyclopentylcarbonyl)piperidin-4-yl]phenyl}-3-(pyridin-3-yl)azetidine-1-carboxamide]	0.284 nM	21.3 nM	67.7 nM
CC(C)(C)OC(=O)N1CCC(c2ccc(NC(=O)N3CC(c4cccnc4)C3)cc2)C1 (stereo not drawn) [Example 59, tert-butyl 3-[4-({[3-(pyridin-3-yl)azetidin-1-yl]carbonyl}amino)phenyl]pyrrolidine-1-carboxylate]	0.364 nM	38.5 nM	68.5 nM
COCC(=O)N1CC(c2ccc(NC(=O)N3CC(c4cccnc4)C3)cc2)C1 [Example 218, N-{4-[1-(methoxyacetyl)azetidin-3-yl]phenyl}-3-(pyridin-3-yl)azetidine-1-carboxamide]	0.451 nM	171 nM	188 nM
O=C(CCC(F)(F)F)N1CCC(c2ccc(NC(=O)N3CC(c4cccnc4)C3)cc2)CC1 [Example 179, 3-(pyridin-3-yl)-N-{4-[1-(4,4,4-trifluorobutanoyl)piperidin-4-yl]phenyl}azetidine-1-carboxamide]	0.249 nM	32.5 nM	76.9 nM
CC[C@H](C)C(=O)N1CC[C@H](Oc2ccc(NC(=O)N3CC(c4cccnc4)C3)cc2)C1 [Example 98, N-[4-({(3S)-1-[(2S)-2-methylbutanoyl]pyrrolidin-3-yl}oxy)phenyl]-3-(pyridin-3-yl)azetidine-1-carboxamide]	1.19 nM	616 nM	70.9 nM
CCC(=O)N1CC(c2ccc(NC(=O)N3CC(c4cccnc4)C3)cc2)C1 [Example 226, N-[4-(1-propanoylazetidin-3-yl)phenyl]-3-(pyridin-3-yl)azetidine-1-carboxamide]	0.44 nM	169 nM	200 nM
CCC(CC)CN1CCC(c2ccc(NC(=O)N3CC(c4cccnc4)C3)cc2)CC1 [Example 237, N-{4-[1-(2-ethylbutyl)piperidin-4-yl]phenyl}-3-(pyridin-3-yl)azetidine-1-carboxamide]	0.257 nM	581 nM	346 nM
O=C(CC1CCOCC1)N1CCC(c2ccc(NC(=O)N3CC(c4cccnc4)C3)cc2)C1 (stereo not drawn) [Example 64, 3-(pyridin-3-yl)-N-{4-[1-(tetrahydro-2H-pyran-4-ylacetyl)pyrrolidin-3-yl]phenyl}azetidine-1-carboxamide]	0.171 nM	52.1 nM	71.1 nM
O=C(Nc1ccc(O[C@@H]2CCN(C(=O)c3ccco3)C2)cc1)N1CC(c2cccnc2)C1 [Example 326, N-(4-{[(3R)-1-(furan-2-ylcarbonyl)pyrrolidin-3-yl]oxy}phenyl)-3-(pyridin-3-yl)azetidine-1-carboxamide]	0.294 nM	32.2 nM	16.5 nM
CSCCC(=O)N1CC=C(c2ccc(NC(=O)N3CC(c4cccnc4)C3)cc2)CC1 [Example 24, N-(4-{1-[3-(methylsulfanyl)propanoyl]-1,2,3,6-tetrahydropyridin-4-yl}phenyl)-3-(pyridin-3-yl)azetidine-1-carboxamide]	0.988 nM	170 nM	113 nM
CC1(C(=O)N2CCC(c3ccc(NC(=O)N4CC(c5cccnc5)C4)cc3)CC2)CCCCC1 [Example 181, N-(4-{1-[(1-methylcyclohexyl)carbonyl]piperidin-4-yl}phenyl)-3-(pyridin-3-yl)azetidine-1-carboxamide]	0.256 nM	8.06 nM	24.3 nM
